From patent publication US20070179154A1, “Coumarin derivatives, process for their production and use thereof” (Takeda Pharmaceutical Company Limited, priority 2002, published 2007)

Molecular target: T1, mouse abdominal macrophage microsome ACAT (Mus musculus, UniProt Q61263)
T1 construct: from tissue; host or cells: microsomes of thioglycolate-elicited peritoneal (abdominal) macrophages of C57BL6J mice, cultured 24 h with rabbit beta-VLDL
T1 sequence (Q61263 1-540): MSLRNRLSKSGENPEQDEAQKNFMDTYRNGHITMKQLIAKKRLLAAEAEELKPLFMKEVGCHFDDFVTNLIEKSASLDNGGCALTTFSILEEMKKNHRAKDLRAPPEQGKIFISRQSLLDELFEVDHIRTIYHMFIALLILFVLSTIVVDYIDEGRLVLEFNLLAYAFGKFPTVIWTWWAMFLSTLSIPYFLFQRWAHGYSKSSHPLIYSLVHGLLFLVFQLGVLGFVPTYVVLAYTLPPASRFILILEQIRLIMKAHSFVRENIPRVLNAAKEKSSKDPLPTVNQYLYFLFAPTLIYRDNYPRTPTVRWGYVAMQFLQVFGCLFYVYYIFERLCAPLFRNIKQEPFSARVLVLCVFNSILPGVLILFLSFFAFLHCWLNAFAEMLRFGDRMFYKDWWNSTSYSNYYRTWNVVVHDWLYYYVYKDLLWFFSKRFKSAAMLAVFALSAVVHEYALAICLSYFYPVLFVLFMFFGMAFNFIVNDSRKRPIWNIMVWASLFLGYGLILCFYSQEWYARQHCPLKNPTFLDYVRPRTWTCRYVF
Assay: ACAT inhibitory activity (mouse abdominal macrophage microsome ACAT)
Assay type: biochemical
Conditions: microsome ACAT from thioglycolate-stimulated C57BL6J mouse abdominal macrophage; 3H-oleyl-CoA, 37° C. for 20 minutes; read-out: Enzyme inhibition (IC50)
Protocol: [Preparation of Mouse Abdominal Macrophage Microsome ACAT]
According to the method of Hakamada et al. (Experimental Medicine Suppliment vol. 14, No. 12, Circulation Research Protocol, p, 49-52, 1996), an abdominal macrophage was taken from a thioglycolate-stimulated C57BL6J mouse and cultured for 24 hours in a RPMI 1640-25 mM HEPES (pH7.0) medium containing rabbit β-very low density lipoprotein (β-VLDL, 150 μg cholesterol/ml) which had been prepared by the method of Ishii et al. (Ishii I et al., Arterioscler, Thromb, 12, 1139-1145, 1992). The abdominal macrophage was then collected by centrifugation (4° C., 1.000 rpm, 5 minutes) and sonicated. The sonicated liquid was centrifuged (4° C., 5000 rpm, 15 minutes) and then ultracentrifuged (4° C., 50, 000 rpm, 90 minutes) to prepare a microsome. The microsome thus obtained was used for measuring ACAT inhibitory activity of a test compound as mouse abdominal macrophage microsome ACAT.
[Method for Measuring ACAT Inhibitory Activity]
A mixture of a test compound, cholesterol-albumin-containing-Tris-HCL buffer (pH 7.5) and mouse abdominal macrophage microsome ACAT was pre-incubated at 37° C. for 10 minutes, and ^3H-oleyl-CoA was added to react at 37° C. for 20 minutes. A stopping solution composed of chloroform-methyl alcohol-distilled water (2:2:1 v/v) was added, and produced cholesteryl ester (CE) was extracted with shaking. The extract was subjected to silica gel thin chromatography (petroleum ether:diethyl ether:acetic acid=9:1:0.1 v/v), and the resulting ^3H-CE fraction was measured with a scintillation counter.
ACAT inhibiting rate was calculated from the proportion based on ACAT activity without a test compound, and an IC50 value was calculated as the concentration (μM) of a test compound showing ACAT inhibiting rate 50%. The results are shown in [Table 15].
In the case of `Cc1cc2c(-c3cccc(CCCC(=O)O)c3)c(CC(=O)Nc3ccc(F)cc3C(F)(F)F)c(=O)oc2cc1Cl` [Example 78], the IC50 is reported as 430 nM.
For `O=C(O)/C=C/c1cccc(-c2c(CC(=O)Nc3ccc(F)cc3C(F)(F)F)c(=O)oc3cc(Cl)c(CN4CCN(c5ccccc5)CC4)cc23)c1` [Example 110, (2E)-3-(3-{7-chloro-3-(2-{[4-fluoro-2-(trifluoromethyl)phenyl]amino}-2-oxoethyl)-2-oxo-6-[(4-phenylpiperazin-1-yl)methyl]-2H-chromen-4-yl}phenyl)acrylic acid], the IC50 was 540 nM.
For `O=C(O)/C=C/c1cccc(-c2c(CC(=O)Nc3ccc(Cl)cc3C(F)(F)F)c(=O)oc3cc(Cl)c(CN4CCN(c5ccccc5)CC4)cc23)c1` [Example 111, (2E)-3-(3-{7-chloro-3-(2-{[4-chloro-2-(trifluoromethyl)phenyl]amino}-2-oxoethyl)-2-oxo-6-[(4-phenylpiperazin-1-yl)methyl]-2H-chromen-4-yl}phenyl)acrylic acid], the IC50 was 610 nM.
`O=C(Cc1c(-c2cccc(C(=O)O)c2)c2cc(CN3CCN(c4ccccc4)CC3)c(Cl)cc2oc1=O)Nc1ccc(F)cc1C(F)(F)F` [Example 112, 3-{7-chloro-3-(2-{[4-fluoro-2-(trifluoromethyl)phenyl]amino}-2-oxoethyl)-2-oxo-6-[(4-phenylpiperazin-1-yl)methyl]-2H-chromen-4-yl}benzoic acid] gave an IC50 of 540 nM.
`O=C(Cc1c(-c2cccc(C(=O)O)c2)c2cc(CN3CCN(c4ccccc4)CC3)c(Cl)cc2oc1=O)Nc1ccc(Cl)cc1C(F)(F)F` [Example 113, 3-{7-chloro-3-(2-{[4-chloro-2-(trifluoromethyl)phenyl]amino}-2-oxoethyl)-2-oxo-6-[(4-phenylpiperazin-1-yl)methyl]-2H-chromen-4-yl}benzoic acid] gave an IC50 of 1220 nM.
Molecule `O=C(O)CCc1cccc(-c2c(CC(=O)Nc3ccc(F)cc3C(F)(F)F)c(=O)oc3cc(Cl)c(CN4CCN(c5ccccc5)CC4)cc23)c1` [Example 114] has an IC50 of 550 nM.

Test system: not given
Assay: not given
Conditions: not given
`O=C(O)CCc1cccc(-c2c(CC(=O)Nc3ccc(F)cc3C(F)(F)F)c(=O)oc3cc(Cl)c(F)cc23)c1` [Example 22, 3-[3-[7-chloro-6-fluoro-3-[2-[[4-fluoro-2-(trifluoromethyl)phenyl]amino]-2-oxoethyl]-2-oxo-2H-chromen-4-yl]phenyl]propionic acid] showed a melting point of 198 to 200 °C.
Molecule `O=C(O)CCc1cccc(-c2c(CC(=O)Nc3ccc(F)cc3C(F)(F)F)c(=O)oc3cc(Cl)ccc23)c1` [Example 23, 3-[3-[7-chloro-3-[2-[[4-fluoro-2-(trifluoromethyl)phenyl]amino]-2-oxoethyl]-2-oxo-2H-chromen-4-yl]phenyl]propionic acid] has a melting point of 211 to 212 °C.
`O=C(O)CCc1cccc(-c2c(CC(=O)Nc3ccc(F)cc3C(F)(F)F)c(=O)oc3ccccc23)c1` [Example 24, 3-[3-[3-[2-[[4-fluoro-2-(trifluoromethyl)phenyl]amino]-2-oxoethyl]-2-oxo-2H-chromen-4-yl]phenyl]propionic acid] gave a melting point of 230 to 232 °C.
For `Cc1cc2c(-c3cccc(/C=C/c4nnn[nH]4)c3)c(CC(=O)Nc3ccc(F)cc3C(F)(F)F)c(=O)oc2cc1Cl` [Example 41, 2-(7-chloro-6-methyl-2-oxo-4-{3-[(E)-2-(1H-tetrazol-5-yl)ethenyl]phenyl}-2H-chromen-3-yl)-N-[4-fluoro-2-(trifluoromethyl)phenyl]acetamide], the melting point was 216 to 218 °C.
With `COC(=O)c1ccc(-c2c(CC(=O)Nc3ccc(F)cc3C(F)(F)F)c(=O)oc3cc(Cl)c(C)cc23)cc1` [Example 45, Methyl 4-(7-chloro-3-{2-[4-fluoro-2-(trifluoromethyl)anilino]-2-oxoethyl}-6-methyl-2-oxo-2H-chromen-4-yl)benzoate] the melting point was 202 to 204 °C.
For `CCOC(=O)/C=C/C=C/c1cccc(-c2c(CC(=O)Nc3ccc(F)cc3C(F)(F)F)c(=O)oc3cc(Cl)c(C)cc23)c1` [Example 51, Ethyl (2E,4E)-5-[3-(7-chloro-3-{2-[4-fluoro-2-(trifluoromethyl)anilino]-2-oxoethyl}-6-methyl-2-oxo-2H-chromen-4-yl)phenyl]-2,4-pentadienoate], the melting point was 216 to 218 °C.
With `CCOC(=O)CNCc1cccc(-c2c(CC(=O)Nc3ccc(F)cc3C(F)(F)F)c(=O)oc3cc(Cl)c(C)cc23)c1` [Example 62, Ethyl ({3-[7-chloro-3-(2-{[4-fluoro-2-(trifluoromethyl)phenyl]amino}-2-oxoethyl)-6-methyl-2-oxo-2H-chromen-4-yl]benzyl}amino)acetate] the melting point was 153 to 155 °C.
`CCOC(=O)CSCc1cccc(-c2c(CC(=O)Nc3ccc(F)cc3C(F)(F)F)c(=O)oc3cc(Cl)c(C)cc23)c1` [Example 63, Ethyl ({3-[7-chloro-3-(2-{[4-fluoro-2-(trifluoromethyl)phenyl]amino}-2-oxoethyl)-6-methyl-2-oxo-2H-chromen-4-yl]benzyl}thio)acetate] showed a melting point of 106 to 108 °C.
`CCOC(=O)CS(=O)(=O)Cc1cccc(-c2c(CC(=O)Nc3ccc(F)cc3C(F)(F)F)c(=O)oc3cc(Cl)c(C)cc23)c1` [Example 64, Ethyl ({3-[7-chloro-3-(2-{[4-fluoro-2-(trifluoromethyl)phenyl]amino}-2-oxoethyl)-6-methyl-2-oxo-2H-chromen-4-yl]benzyl}sulfonyl)acetate] gave a melting point of 230 to 231 °C.
For `Cc1cc2c(-c3cccc(CCc4nnn[nH]4)c3)c(CC(=O)Nc3ccc(F)cc3C(F)(F)F)c(=O)oc2cc1Cl` [Example 98], the melting point was 244 to 246 °C.
`Cc1cc2c(-c3cccc(-c4noc(=O)[nH]4)c3)c(CC(=O)Nc3ccc(F)cc3C(F)(F)F)c(=O)oc2cc1Cl` [Example 99, 2-{7-chloro-6-methyl-2-oxo-4-[3-(5-oxo-4,5-dihydro-1,2,4-oxadiazol-3-yl)phenyl]-2H-chromen-3-yl}-N-[4-fluoro-2-(trifluoromethyl)phenyl]acetamide] gave a melting point of 285 to 287 °C.
In the case of `Cc1cc2c(-c3cccc(Cc4noc(=O)[nH]4)c3)c(CC(=O)Nc3ccc(F)cc3C(F)(F)F)c(=O)oc2cc1Cl` [Example 100], the melting point is reported as 161 to 164 °C.
In the case of `Cc1cc2c(-c3cccc(Cc4noc(=O)[nH]4)c3)c(CC(=O)Nc3ccccc3C(F)(F)F)c(=O)oc2cc1Cl` [Example 101], the melting point is reported as 295 °C (dec.).
`Cc1cc2c(-c3cccc(-c4noc(=S)[nH]4)c3)c(CC(=O)Nc3ccc(F)cc3C(F)(F)F)c(=O)oc2cc1Cl` [Example 102, 2-{7-chloro-6-methyl-2-oxo-4-[3-(5-thioxo-4,5-dihydro-1,2,4-oxadiazol-3-yl)phenyl]-2H-chromen-3-yl}-N-[4-fluoro-2-(trifluoromethyl)phenyl]acetamide] showed a melting point of 178 to 180 °C.
With `Cc1cc2c(-c3cccc(-c4nsc(=O)[nH]4)c3)c(CC(=O)Nc3ccc(F)cc3C(F)(F)F)c(=O)oc2cc1Cl` [Example 104, 2-{7-chloro-6-methyl-2-oxo-4-[3-(5-oxo-4,5-dihydro-1,2,4-thiadiazol-3-yl)phenyl]-2H-chromen-3-yl}-N-[4-fluoro-2-(trifluoromethyl)phenyl]acetamide] the melting point was 269 to 271 °C (dec.).
With `COC(=O)c1cccc(-c2c(CC(=O)Nc3ccc(F)cc3C(F)(F)F)c(=O)oc3cc(Cl)c(CN4CCN(c5ccccc5)CC4)cc23)c1` [Example 108] the melting point was 135 to 137 °C.
With `COC(=O)c1cccc(-c2c(CC(=O)Nc3ccc(Cl)cc3C(F)(F)F)c(=O)oc3cc(Cl)c(CN4CCN(c5ccccc5)CC4)cc23)c1` [Example 109] the melting point was 130 to 132 °C.
With `O=C(O)/C=C/c1cccc(-c2c(CC(=O)Nc3ccc(F)cc3C(F)(F)F)c(=O)oc3cc(Cl)c(CN4CCN(c5ccccc5)CC4)cc23)c1` [Example 110, (2E)-3-(3-{7-chloro-3-(2-{[4-fluoro-2-(trifluoromethyl)phenyl]amino}-2-oxoethyl)-2-oxo-6-[(4-phenylpiperazin-1-yl)methyl]-2H-chromen-4-yl}phenyl)acrylic acid] the melting point was 238 to 240 °C.
`O=C(O)/C=C/c1cccc(-c2c(CC(=O)Nc3ccc(Cl)cc3C(F)(F)F)c(=O)oc3cc(Cl)c(CN4CCN(c5ccccc5)CC4)cc23)c1` [Example 111, (2E)-3-(3-{7-chloro-3-(2-{[4-chloro-2-(trifluoromethyl)phenyl]amino}-2-oxoethyl)-2-oxo-6-[(4-phenylpiperazin-1-yl)methyl]-2H-chromen-4-yl}phenyl)acrylic acid] showed a melting point of 239 to 241 °C.
`O=C(Cc1c(-c2cccc(C(=O)O)c2)c2cc(CN3CCN(c4ccccc4)CC3)c(Cl)cc2oc1=O)Nc1ccc(F)cc1C(F)(F)F` [Example 112, 3-{7-chloro-3-(2-{[4-fluoro-2-(trifluoromethyl)phenyl]amino}-2-oxoethyl)-2-oxo-6-[(4-phenylpiperazin-1-yl)methyl]-2H-chromen-4-yl}benzoic acid] gave a melting point of 149 to 151 °C.
`O=C(Cc1c(-c2cccc(C(=O)O)c2)c2cc(CN3CCN(c4ccccc4)CC3)c(Cl)cc2oc1=O)Nc1ccc(Cl)cc1C(F)(F)F` [Example 113, 3-{7-chloro-3-(2-{[4-chloro-2-(trifluoromethyl)phenyl]amino}-2-oxoethyl)-2-oxo-6-[(4-phenylpiperazin-1-yl)methyl]-2H-chromen-4-yl}benzoic acid] gave a melting point of 151 to 153 °C.
For `O=C(O)CCc1cccc(-c2c(CC(=O)Nc3ccc(F)cc3C(F)(F)F)c(=O)oc3cc(Cl)c(CN4CCN(c5ccccc5)CC4)cc23)c1` [Example 114], the melting point was 226 to 228 °C.
With `Cc1cc2c(-c3cccc(C(=O)NC(C)C)c3)c(CC(=O)Nc3ccc(Cl)cc3C(F)(F)F)c(=O)oc2cc1Cl` [Example 121] the melting point was 215 to 217 °C.
For `Cc1cc2c(-c3cccc(C(=O)NC(C)(C)C)c3)c(CC(=O)Nc3ccc(Cl)cc3C(F)(F)F)c(=O)oc2cc1Cl` [Example 122], the melting point was 206 to 208 °C.
